How the values were obtained:
[1] = system: human colon cancer cell line HCT116 transplanted subcutaneously; assay: Measurement of antitumor effect in HCT116 tumor-bearing nude mouse; assay type: in vivo, BALB/c nude mouse; conditions: oral, administered twice (initiation date and 3 days after)
Method: [Measurement of Antitumor Effect]
A representative example of the compound group of the present invention was measured in terms of antitumor effect.
Such antitumor effect was examined, using a tumor-bearing mouse produced by transplanting the human colon cancer cell line HCT116 obtained from American Type Culture Collection (Virginia, U.S.A) into the inguinal subcutis of a BALB/c nude mouse purchased from Charles River Laboratories Japan, Inc. The purchased nude mouse was quarantined for 1 week. Thereafter, approximately 5×10^6 HCT116 cells were transplanted subcutaneously. When the size of a tumor thereof became about 200 mm^3, the mouse was subjected to the present experiment.
Each compound was dissolved or suspended in a solution to be administered, and 0.5 ml of the solution was orally administered. Such administration was carried out twice in total, that is, on the initiation date of administration and 3 days after the administration. The antitumor effect was calculated as a tumor growth inhibition by comparing the solution administration group with a control group in terms of tumor growth. Tumor growth inhibition(TGI)=(1−the tumor growth amount of agent-treated group/the tumor growth amount of control group)×100(%)

[2] = system: human colon cancer cell line HCT116; assay: Measurement of cell growth inhibitory activity (Cell Counting Kit-8); assay type: cell-based; conditions: HCT-116, 96 h, HCT116, 2,000 cells/well, cultured 4 days
Method: [Measurement of Cell Growth Inhibitory Activity]
Several representative examples of the compound group of the present invention were measured in terms of cell growth inhibitory activity.
Cancer cell growth inhibitory activity was measured using Cell Counting Kit-8 manufactured by Dojindo Laboratories. The human colon cancer cell line HCT116 obtained from American Type Culture Collection (Virginia, U.S.A) was inoculated in a 96-well culture plate at a concentration of 2,000 cells/well. Thereafter, a certain concentration of compound was added thereto, and the obtained mixture was then cultured at 37° C. in 5% CO2 for 4 days. On the 4th day of the culture, a Cell Counting Kit-8 solution was added to the culture product, and absorbance (measurement wavelength: 450 nm; reference wavelength: 615 nm) was measured in accordance with protocols included with the kit. Thereafter, 50% growth inhibitory concentration (IC50) was calculated.

Row | SMILES | IC50 [2] | TGI (%) on day 7 ([1]; dose 12.5 mg/kg) | TGI (%) on day 7 ([1]; dose 200 mg/kg) | TGI (%) on day 7 ([1]; dose 50 mg/kg)
1 | O=c1[nH]c(-c2ccccc2C(F)(F)F)cc2ccc(N3CCC(O)CC3)cc12 [Compound 29, 7-(4-hydroxypiperidin-1-yl)-3-(2-trifluoromethylphenyl)-2H-isoquinolin-1-one] | 0.052 µM | – | – | –
2 | CCOC(=O)Nc1ccc2cc(-c3ccccc3C(F)(F)F)[nH]c(=O)c2c1 [Compound 61, ethyl[1-oxo-3-(2-trifluoromethylphenyl)-1,2-dihydroisoquinolin-7-yl]carbamate] | 0.021 µM | – | 73% | –
3 | O=c1[nH]c(-c2ccccc2)cc2ccc(N3CCC(O)C3)cc12 (stereo not drawn) [Compound 36, 7-(3-hydroxypyrrolidin-1-yl)-3-phenyl-2H-isoquinolin-1-one] | 0.018 µM | – | – | –

The next lines start with results.

Row | IC50 [2] | SMILES | TGI (%) on day 7 ([1]; dose 12.5 mg/kg) | TGI (%) on day 7 ([1]; dose 200 mg/kg) | TGI (%) on day 7 ([1]; dose 50 mg/kg)
4 | 0.028 µM | O=c1[nH]c(-c2ccccc2)cc2ccc(N3CCOCC3)cc12 [Compound 8, 7-morpholin-4-yl-3-phenyl-2H-isoquinolin-1-one] | 96% | – | –
5 | 0.097 µM | O=c1[nH]c(-c2ccccc2C(F)(F)F)cc2ccc(N3CCCCC3)cc12 [Compound 10, 7-piperidin-1-yl-3-(2-trifluoromethylphenyl)-2H-isoquinolin-1-one] | – | – | 91%
6 | 0.02 µM | O=c1[nH]c(-c2ccccc2)cc2ccc(N3CCC(CO)CC3)cc12 [Compound 21, 7-(4-hydroxymethylpiperidin-1-yl)-3-phenyl-2H-isoquinolin-1-one] | – | – | –

From US8143274B2, “1-(2H)-isoquinolone derivative” (Chugai Seiyaku Kabushiki Kaisha, priority 2004, dated 2012)
